Data published in patent US12268683B2, “Compounds and methods for synergistic activation of M channels” (THE REGENTS OF THE UNIVERSITY OF CALIFORNIA, priority 2018, dated 2025).

Key:
KCNQ2 = KCNQ2 (Homo sapiens, UniProt O43526); assay: [3H]GABA competition binding to oocytes expressing KCNQ2; conditions: 100 μM, 10 μM 3H-GABA
Protocol: Each group of oocytes was placed in a round-bottomed, 15-ml falcon tube, washed with ND96, and then resuspended in ND96 containing 10 μM γ-[2,3-^3H(N)]-aminobutyric acid (^3H-GABA) (Perkin Elmer, Waltham, Mass.) at 25-40 Ci/mMol specific activity either alone, or with 100 μM 2FPG or 100 μM 3FMSG, for a 30 minute incubation at room temperature. Oocytes were then washed four times in 16° C. ND96, transferred to individual wells in a 96 well plate and lysed in 0.2% SDS in ND96. Each oocyte lysate was transferred to a scintillation vial containing 5 ml Cytoscint scintillation cocktail fluid (MP Biomedicals, Santa Ana, Calif.). Vials were capped, shaken, and then allowed to sit at room temperature for at least 30 min before scintillation counting in a Beckmann Coulter LS6500 liquid scintillation counter.

KCNQ1-R243A = KCNQ1-R243A (Homo sapiens, UniProt P51787, R243A); assay: TEVC of R243A KCNQ1 channels; assay type: cell-based
Excerpt: (§1) As previously described (12), we generated cRNA transcripts encoding human KCNA1, KCNE1, KCNE2, KCNE3, KCNQ1, KCNQ2, KCNQ3, KCNQ4 or KCNQ5 by in vitro transcription using the T7 polymerase mMessage mMachine kit (Thermo Fisher Scientific), after vector linearization, from cDNA sub-cloned into plasmids incorporating Xenopus laevis β-globin 5′ and 3′ UTRs flanking the coding region to enhance translation and cRNA stability. We quantified cRNA by spectrophotometry. We generated mutant KCNQ2 and KCNQ3 cDNAs by site-directed mutagenesis with a QuikChange kit (Stratagene, San Diego, Calif.) and prepared the cRNAs as above. We injected defolliculated stage V and VI Xenopus laevis oocytes (Ecocyte Bioscience, Austin, Tex. and Xenoocyte, Dexter, Mich., US) with KCNE and/or KCNQ cRNAs (5-20 ng). […]
(§2) We performed TEVC at room temperature using an OC-725C amplifier (Warner Instruments, Hamden, Conn.) and pClamp10 software (Molecular Devices, Sunnyvale, Calif.) 2-5 days after cRNA injection as described in the section above. […] We recorded currents in response to voltage pulses between −120 or −80 mV and +40 mV at 20 mV intervals from a holding potential of −80 mV, to yield current-voltage relationships, current magnitude, and for quantifying activation rate. We analyzed data using Clampfit (Molecular Devices) and Graphpad Prism software (GraphPad, San Diego, Calif., USA); values are stated as mean±SEM. […]

KCNQ1-R243A/KCNE1 = KCNQ1-R243A/KCNE1 (Homo sapiens, UniProt P51787, R243A); assay: TEVC of R243A KCNQ1/KCNE1 channels; assay type: cell-based
Excerpt: as §1, §2

[1] = rats fed Mallotus philippensis extract; cited from earlier work

CS(=O)(=O)N(CC(=O)O)c1cccc(F)c1 [3FMSG]
competition with [3H]GABA binding to KCNQ2 (KCNQ2): able to compete out GABA binding

CCCCCCCCC/C=C/C=O [(E)-2-dodecenal]
effect of R243A mutation on (E)-2-dodecenal action in KCNQ1 (KCNQ1-R243A): slightly increased (E)-2-dodecenal efficacy
effect of R243A mutation on (E)-2-dodecenal action in KCNQ1/KCNE1 (KCNQ1-R243A/KCNE1): reduced (E)-2-dodecenal efficacy twofold

CC(=O)c1c(O)c(C)c(O)c(Cc2c(O)c3c(c(C(=O)/C=C/c4ccccc4)c2O)OC(C)(C)C=C3)c1O [MTX, mallotoxin]
oral bioavailability [1]: > 20%
plasma concentration [1]: exceeded 2 μg/ml
